{
  "source": "patent US11753489B2",
  "about": "“Nanoparticles using anionic polymer, preparation method and composition thereof” (IMGT CO, LTD., priority 2020, dated 2023)",
  "tested_on": "Huh7 liver cancer cells",
  "assay": "in vitro cytotoxicity evaluation (viability analysis)",
  "format": "cell-based",
  "settings": "FIG. 7",
  "description": "Viability analysis was performed on Huh7 liver cancer cells to evaluate the toxicity of the prepared nanoparticles. Three groups were evaluated: doxorubicin hydrochloride (dox), particles loaded with doxorubicin (032d), and particles not loaded with doxorubicin (032).",
  "note": "Structures can show the parent of a compound that is named as a salt.",
  "data": [
    {"smiles": "COc1cccc2c1C(=O)c1c(O)c3c(c(O)c1C2=O)C[C@@](O)(C(=O)CO)C[C@@H]3O[C@H]1C[C@H](N)[C@H](O)[C@H](C)O1", "note": "[doxorubicin hydrochloride]", "values": [
      {"measurement": "cell viability / cancer cell killing effect", "result": "cancer cell killing effect in a concentration-dependent manner"}
    ]}
  ]
}
